This is an account of results in patent US20230348988A1, “DNA Damage Repair Deficit in Cancer Cells” (THE REGENTS OF THE UNIVERSITY OF CALIFORNIA, priority 2020, published 2023).

Type in all cases: cell-based
The subject of assay [1] is SAS cells. The assay is described as follows: Pulsed-field gel electrophoresis of residual DSB after irradiation. How it is done:
Next it was sought to test whether TGFβ inhibition would increase alt-EJ in the context of NHEJ inhibition. Here pulsed-field gel electrophoresis was used to measure residual DSB levels in SAS cells at various timepoints after irradiation (20 Gy). NHEJ was blocked by treating cells with the DNA-protein kinase inhibitor KU57788 1 hour before irradiation and TGFβ signaling was blocked 24 hours beforehand with LY36494 pretreatment.

Assay [2] has as its system SAS cells. Put plainly: NANOSTRING DDR gene panel expression in SAS cells. As to conditions: 24 h, TGFβ plus or minus inhibitor. How it is done:
TGFβ regulates expression of DDR genes. To further investigate TGFβ impact on DDR, the expression of DNA repair-associated genes was evaluated using the NANOSTRING™ DDR gene panel. […] According to KEGG pathway analyses, expression of genes implicated in HR and NHEJ was increased by TGFβ and reduced by its inhibition. […] BRCA1 expression was increased by TGFβ and suppressed by LY2157299, as was ABL1 and POLD4. In contrast, TGFβ decreased and LY2157299 inhibition increased expression of LIG1, PARP1, and POLQ, which are key genes involved in alt-EJ.
(§1) Gene expression analyses methods: Total RNA was extracted. Sample RNA (250 ng) was used for the NANOSTRING™ DNA Damage Repair Gene Expression panel, consisting of 180 DDR genes and 12 housekeeping genes for normalization, according to manufacturer's instructions. Hybridization efficiency and background signals were evaluated based on internal positive and negative control probes analyzed using manufacturer's software. Ratio data from 2-3 biological repeats were used for further analysis and graphs.

Another assay has as its system U251 human GBM cell line. The assay is described as follows: Quantitative expression assays of alt-EJ genes in U251 cells. As to conditions: time course, TGFβ signaling blockade with LY2157299.
Source text: The above observations led to the hypothesis that TGFβ suppression of alt-EJ gene expression is a distinct mechanism that influences differential DNA repair pathway use. To test whether this biology is broadly employed beyond HNSC, glioblastoma (GBM) was considered because high TGFβ ligand and receptor expression correlate with poorer survival, and because TGFβ inhibition enhances radiosensitivity in GBM cell lines and primary tumor explants. First, the U251 human GBM cell line was investigated using the NANOSTRING™ panel. As observed in HNSC SAS cells, TGFβ inhibition increased expression of the key alt-EJ genes, LIG1, PARP1, and POLQ in GBM cells. […] U251 reporters (EJ2GFP) were established to evaluate alt-EJ repair.
as §1

For the molecule `O=c1cc(N2CCOCC2)oc2c(-c3cccc4c3sc3ccccc34)cccc12` [KU57788], the “repair of radiation induced DSB” value in the assay on SAS cells [1] (KU57788 1 hour before irradiation (20 Gy)) was “significantly inhibited”.
As to `Cc1cccc(-c2nn3c(c2-c2ccnc4ccc(C(N)=O)cc24)CCC3)n1` [LY2157299], in the assay with SAS cells [2], the “BRCA1 expression (as was ABL1 and POLD4)” value is recorded as “suppressed”; the “TGFβ induction of CDKNJA” value is “blocked”; the “expression of LIG1, PARP1, and POLQ” value is given as “increased”. In the assay on U251 human GBM cell line, the “expression of LIG1, PARP1, and POLQ” value is given as “increased”.
`c1ccc(-c2[nH]ncc2-c2ccnc3ccccc23)nc1` [LY36494]: the “rescue of KU57788-inhibited repair of radiation induced DSB” value with SAS cells [1] (LY36494 pretreatment 24 hours beforehand, with KU57788, 20 Gy) is given as “partially rescued”.
